From patent US11472812B2, “Anti-cancer compounds targeting Ral GTPases and methods of using the same” (The Regents of the University of Colorado, a body corporate, priority 2014, dated 2022)
Entries after “also recorded” stand apart in the source; their conditions may differ. Where two headings read alike, the source gives them in different places.

Legend:
[1] = tested on: H2122 human lung cancer cells; experiment: H2122 xenograft tumor growth; assay type: in vivo, nude mice; conditions: i.p. daily except weekends, initiated 24 h after inoculation; RBC8 50 mg/kg/d; BQU57 and BQU85 5, 10, 20, and 50 mg/kg/d
Protocol: We next determined compound entry into tumor tissue. To do so, athymic nude mice (Ncr nu/nu; National Cancer Institute, Fredrick, Md.) were received at 5 to 6 weeks of age and were allowed to acclimate for 2 weeks in sterile micro isolator cages with constant temperature and humidity. Mice had free access to food and water. H2122 cells in log-phase growth were harvested on the day of use. Cells were suspended in un-supplemented RPMI 1640 medium and 0.1 mL (2×10^5 cells) was injected s.c. four sites per mice. For H358 xenografts, cells (5×10^6) were mixed with matrigel (20% final concentration) and 0.1 mL was inoculated s.c. per site. After cell inoculation, mice were monitored daily, weighed twice weekly and caliper measurements begun when tumors visible. Tumor volume was calculated by (L×W2)/2, where L is longer measurement of tumor and W is the smaller tumor measurement. Drug treatment started the day after inoculation. Compounds were dissolved in DMSO and injected i.p. daily except weekends at 10/20/50 mg/kg. […] The effect of the Ral inhibitors on xenograft tumor growth was then tested in nude mice. Mice were inoculated subcutaneously with H2122 human lung cancer cells and treated intraperitoneally with 50 mg/kg/d (except weekends) of RBC8 24 h post inoculation.

[2] = Pharmacokinetics after single intraperitoneal injection; assay type: in vivo; conditions: 50.0 mg/kg i.p., n = 3, nude mice
Protocol: Inhibition of Ral activity and tumor growth were evaluated in human lung cancer mouse models. Pharmacokinetics (PK) of RBC8 and BQU57 were first analyzed in nude mice to test bioavailability. Following a single intraperitoneal injection (50 mg/Kg), blood samples were collected at time intervals from 0 to 5 h post-dose (9 time points).

RalB-GDP = target: T1, RalB-GDP (Homo sapiens, UniProt P11234, Q72L); experiment: TROSY 15N-HSQC NMR chemical shift perturbation; assay type: binding; conditions: 100 μM RalB-GDP, 100 μM compound
T1 construct: made in house
T1 sequence (P11234 1-206 Q72L): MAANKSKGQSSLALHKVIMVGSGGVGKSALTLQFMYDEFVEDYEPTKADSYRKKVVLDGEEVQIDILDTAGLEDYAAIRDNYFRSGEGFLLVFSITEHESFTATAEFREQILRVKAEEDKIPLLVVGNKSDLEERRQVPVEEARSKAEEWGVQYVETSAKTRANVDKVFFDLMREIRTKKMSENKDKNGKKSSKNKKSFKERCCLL
From the text: (§1) To confirm the direct binding of the compounds to the target, we used TROSY ^15N-HSQC (Transverse Relaxation-Optimized Heteronuclear Single Quantum Coherence) NMR. RalB (Q72L mutant) in a pET16b (Novagen) plasmid was a kind gift from Dr. Darerca Owen (Cambridge University). RalB was purified with additional steps for loading with GDP or the non-hydrolyzable form of GTP, GMPNPP (GNP, Sigma-Aldrich). Uniform ^13C^15N-double labeled protein was produced in M9 media supplemented with ^15N-NH4Cl and ^13C-glucose. Samples were prepared for NMR in 50 mM sodium phosphate, pH 7.6, 100 mM NaCl and 1 mM MgCl2. All NMR experiments were recorded on an Agilent 900 MHz system at 25° C. Resonance assignments for the RalB-GNP complex were obtained from previously published studies deposited in Biological Magnetic Resonance Bank (BMRB, code: 15230). Chemical shift assignments of the RalB-GDP complex were obtained independently using HNCACB, CBCA(CO)NH and COCNH-TOCSY experiments. All NMR data was processed using NMRPipe and analyzed using CCPNMR analysis program. Assignment were obtained by automated assignment using PINE followed by manual verification. ^15N-HSQC experiments were used to monitor amide shifts from the RalB protein (100 μM) following the addition of compound reconstituted in deuterated DMSO. DMSO concentrations in the final sample were 0.5% or 1%; control samples were made with 0.5% or 1% deuterated DMSO and all samples containing compounds were compared to their corresponding […] control.
(§2) Because only the NMR structure of RalB in complex with GNP has been solved (PDB code 2KE5, BMRB entry 15230), we focused on this isoform. The ^15N-HSQC NMR spectrum of RalB-GDP and RalB-GNP were first determined and the chemical shift differences were analyzed. NMR spectra were then recorded in the presence of RBC8 or DMSO control. Binding of small molecules to the protein was monitored by the perturbation of ^15N-HSQC protein amide peaks.
(§3) A detailed NMR titration of the binding between BQU57 and RalB-GDP was carried out. […] In the absence of a crystal structure of RalB-GDP, a homology model was generated based on the sequence similarity to RalA-GDP and the residues that experienced chemical shift changes in the presence of drug was mapped onto this model (FIG. 3E).

RalB-GNP = target: T2, RalB-GNP (Homo sapiens, UniProt P11234, Q72L); experiment: TROSY 15N-HSQC NMR chemical shift perturbation; assay type: binding; conditions: 100 μM RalB-GNP, 100 μM compound
T2 construct: made in house
T2 sequence (P11234 1-206 Q72L): T1 sequence (P11234 1-206 Q72L)
From the text: as §1, §2, §3

H358 cells = experiment: Soft agar colony formation (anchorage-independent growth); assay type: cell-based, human; conditions: for further growth inhibition by drug after siRNA knockdown of RalA and RalB: H358 cells with siRNA knockdown of RalA and RalB; for growth inhibition effect with overexpression of constitutively active RalAG23V or RalBG23V: H358 cells, stable overexpression
Protocol: (§4) The effects of RBC8 and BQU57 on human lung cancer cell growth were evaluated. Because Ral is well-known for its role in anchorage independence, we carried out growth inhibition assays in soft agar. Four human lung cancer cells H2122, H358, H460 and Calu6 were used in a series of experiments to determine drug uptake, biologic specificity, and effect. To measure growth inhibition of human lung cancer cells under anchorage-independent conditions in soft agar, cells were seeded into 6-well plates (coated with a base layer made of 2 ml of 1% low-melting-point agarose) at 15,000 cells per well in 3 ml of 0.4% low-melting-point agarose containing various concentration of drug. Two to four weeks (depending on cell line) after incubation, cells were stained with 1 mg/ml MTT and colonies were counted under a microscope.
(§5) For the chemo-genetic experiments, siRNA treated cells were seeded into soft agar in the presence of various concentrations of drug. For the overexpression experiments, H358 cells stably overexpressing FLAG, FLAG-RalA^G23V or FLAG-RalB^G23V were generated and cells were subjected to the soft agar colony formation assay in the presence of drug. Attempts to stably overexpress FLAG-RalA^G23V or FLAG-RalB^G23V in H2122 cells were unsuccessful and the rescue experiments with H2122 were carried out 72 hrs after the transient transfection with FLAG, FLAG-RalA^G23V or FLAG-RalB^G23V using the soft agar colony formation assay in the presence of drug.

H2122 cells = experiment: as above; assay type: cell-based, human; conditions: for further growth inhibition by drug after siRNA knockdown of RalA and RalB: H2122 cells with siRNA knockdown of RalA and RalB; for growth inhibition effect with overexpression of constitutively active RalAG23V or RalBG23V: H2122 cells, transient transfection
Protocol: as §4, §5

SMILES | xenograft tumor growth inhibition [1] | Co [2] [µM] | half-life ([2]; mouse, blood, ip) [h] | AUC(0-t) ([2]; mouse, blood, ip, read-out: AUC0-5 hr) [ng·h/mL] | binding to RalB-GDP by 15N-HSQC chemical shift changes (RalB-GDP) | binding to RalB-GNP by 15N-HSQC chemical shift changes (RalB-GNP) | further growth inhibition by drug after siRNA knockdown of RalA and RalB (H358 cells) | growth inhibition effect with overexpression of constitutively active RalAG23V or RalBG23V (H358 cells) | IC50 (H358 cells; Homo sapiens, NCI-H358, read-out: IC50 (50% reduction in colony number)) [nM] | further growth inhibition by drug after siRNA knockdown of RalA and RalB (H2122 cells) | growth inhibition effect with overexpression of constitutively active RalAG23V or RalBG23V (H2122 cells) | IC50 (H2122 cells; Homo sapiens, NCI-H2122, read-out: IC50 (50% reduction in colony number)) [nM] | T1/2 [2] [h] | IC50 (H358 cells; H358, soft agar, 2-4 weeks, read-out: IC50 (50% reduction in colony number)) [nM] | IC50 (H2122 cells; H2122, soft agar, 2-4 weeks, read-out: IC50 (50% reduction in colony number)) [nM]
Cc1nn(C)c2c1C(c1ccc(C(F)(F)F)cc1)C(C#N)=C(N)O2 (centres unmarked) [BQU57, 6-amino-1,3-dimethyl-4-(4-(trifluoromethyl)phenyl)-1,4-dihydropyrano[2,3-c]pyrazole-5-carbonitrile] | dose-dependent growth inhibition effects were observed; also recorded: inhibited xenograft tumor growth | 41.6 ± 5.1 | 1.5 ± 0.11 | 28600 ± 2100 | binding to the predicted site | did not bind | did not result in significant further inhibition | rescue | 1300 | did not result in significant further inhibition | rescue | 2000 | – | – | –
COc1ccc(OC)c(C2C(C#N)=C(N)Oc3n[nH]c(-c4ccc5ccccc5c4)c32)c1 (centres unmarked) [RBC8] | inhibited xenograft tumor growth | 41.2 ± 4.2 | – | – | showed changes in peak position of representative residues located in the allosteric site | did not bind | did not result in significant further inhibition | rescue | – | did not result in significant further inhibition | rescue | – | 0.58 ± 0.26 | 3400 | 3500
